From patent US10278948B1, “Method for transnasal delivery of anticonvulsant and therapeutic treatments” (priority 2015, dated 2019)
Like-named read-outs stand apart in the source and are kept apart here.

How the values were obtained:
[1] = Transnasal administration of topiramate to the sphenopalatine ganglion in human patients (Example 1); type: in vivo
Source text: The devices and methods described above were applied to the treatment of human patients for headache pain, when the inventor observed a dramatic effect with regard to treating obesity and promoting weight-loss. The results of this testing are surprising and unexpected in view of efficacy of the very low dosages administered as compared to published treatment regimens using topiramate without any co-delivered medicament for the treatment of obesity. […] The method of treatment was as follows: Topiramate was dissolved in sterile water to a concentration of 5 mg/mL. Then, 0.3 mL of this solution (1.5 mg of topiramate) per nostril was administered transnasally to the sphenopalatine ganglion using a Tx360® nasal applicator (from Tian Medical of Lombard, Ill.) in the manner described above with reference to the devices shown in FIGS. 6-11B and the relative distal-end anatomic positioning described with reference to FIGS. 4-5. This dosage was administered once per week for four weeks. Each patient lost between 5% and 10% of his/her body weight over the four-week period. […] It is expected that dosage may be effective for headache pain and for promoting weight loss as treatment for obesity at a frequency from once or twice per day to once per month when administered at […] delivered as about 0.2-0.3 mL per nostril toward the SPG. Although this sample is very small, it compares highly favorably to published studies using topiramate for weight loss, and the effective dosage was surprising far lower than the effective dosages reported in the literature. As a first example, in Obesity Review 2011 May; 12(5):e338-47. doi: 10.1111/j.1467-789X.2010.00846.x. Epub 2011 Mar. 28. Efficacy and safety of topiramate on weight loss: a meta-analysis of randomized controlled trials, ten clinical studies (3320 individuals) were evaluated, each of which was a randomized controlled study with at least 16 weeks of duration that reported the effect of topiramate on weight loss and adverse events using topiramate at 96-200 mg/day. […] Although the etiology is not apparent, a highly reasonable hypothesis is that the side effects and lack thereof, respectively, may be related to the significant dosage difference and/or administration mode (96-200 mg/day perorally versus 3 mg/week transnasally).

[2] = cited from earlier work; for mean percent weight loss from baseline to week 24: placebo −2.6%
[3] = 96-200 mg/day perorally, at least 16 weeks, ten clinical studies (3320 individuals); cited from earlier work
[4] = cited from earlier work
[5] = every patient, after the first dosage, 3 mg transnasally to the SPG

CC1(C)O[C@@H]2[C@@H](CO[C@@]3(COS(N)(=O)=O)OC(C)(C)O[C@@H]23)O1 [topiramate, 2,3:4,5-bis-O-(1-methylethylidene)-β-D-fructopyranose sulfamate]
side effects (paresthesia, taste impairment and psychomotor disturbances) reported by patients ([1]; 3 mg/week transnasally to the SPG): none of which was reported by patients in the presently-reported example | regular headache pain (patient-reported) ([1]; all patients, 3 mg/week transnasally to the SPG): reduced in frequency and severity | craving for food, nicotine, and alcohol (patient-reported) [1, 5]: immediate reduction of craving for food, nicotine, and alcohol | satiety (needing less food intake to feel full; patient-reported) [1, 5]: improved satiety | patients with effective weight loss ([1]; human patients, 1.5 mg per nostril (3 mg) transnasally to the SPG once per week for four weeks): 100% | mean percent weight loss from baseline to week 24 ([2]; 64 mg/day topiramate group): −5.0% | mean percent weight loss from baseline to week 24 ([2]; 96 mg/day topiramate group): −4.8% | mean percent weight loss from baseline to week 24 ([2]; 192 mg/day topiramate group): −6.3% | mean percent weight loss from baseline to week 24 ([2]; 384 mg/day topiramate group): −6.3% | most frequent adverse events ([2]; 64-384 mg daily, 24 weeks): paresthesia, somnolence, and difficulty with memory, concentration, and attention | percentages of patients who lost at least 5% or 10% of body weight compared with placebo ([2]; 64-384 mg daily, 24 weeks): Greater percentages of topiramate-treated patients lost at least 5% or 10% of body weight compared with placebo | frequently observed side effects [3]: paresthesia, taste impairment and psychomotor disturbances | solubility in water [4]: up to 9.8 mg/mL
